Results on 2 molecules are retold here after patent US12570638B2, “Fused imidazole derivatives as AHR antagonists” (Sail Biomedicines, Inc., priority 2020, dated 2026).

As a reminder, the IC50 is the concentration needed to halve the response being measured.

Where only a bound is given, the exact number is not on record here.

One series deals with T1, AHR (Homo sapiens, UniProt P35869).
T1 construct: other cell line with a DRE-luciferase reporter stably transfected; endogenous in cells; host or cells: Human HepG2 liver carcinoma AhR-Lucia reporter cells
T1 sequence (P35869 11-848): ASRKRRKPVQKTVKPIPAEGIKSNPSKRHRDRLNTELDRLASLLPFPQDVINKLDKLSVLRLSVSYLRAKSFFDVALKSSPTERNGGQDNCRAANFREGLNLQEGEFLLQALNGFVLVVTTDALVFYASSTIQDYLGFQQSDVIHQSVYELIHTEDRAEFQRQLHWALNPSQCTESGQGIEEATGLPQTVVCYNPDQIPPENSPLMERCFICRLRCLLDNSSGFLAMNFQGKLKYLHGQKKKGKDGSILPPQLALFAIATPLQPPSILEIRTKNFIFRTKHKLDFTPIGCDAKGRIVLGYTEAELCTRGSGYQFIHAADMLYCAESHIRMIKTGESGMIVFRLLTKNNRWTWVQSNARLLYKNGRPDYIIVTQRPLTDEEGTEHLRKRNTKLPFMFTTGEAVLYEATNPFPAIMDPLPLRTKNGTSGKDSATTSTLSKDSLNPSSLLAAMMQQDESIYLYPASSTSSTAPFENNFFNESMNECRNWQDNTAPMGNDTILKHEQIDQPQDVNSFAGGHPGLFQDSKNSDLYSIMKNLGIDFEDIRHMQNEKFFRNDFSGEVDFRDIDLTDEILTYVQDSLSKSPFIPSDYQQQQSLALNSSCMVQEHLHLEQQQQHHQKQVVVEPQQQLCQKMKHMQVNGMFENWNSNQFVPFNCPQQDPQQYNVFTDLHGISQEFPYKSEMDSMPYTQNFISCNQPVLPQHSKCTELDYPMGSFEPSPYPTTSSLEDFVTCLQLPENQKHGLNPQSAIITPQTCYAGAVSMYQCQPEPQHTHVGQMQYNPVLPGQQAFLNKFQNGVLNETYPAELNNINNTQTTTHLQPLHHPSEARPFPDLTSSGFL
The series is described as follows: DRE-Luciferase Reporter Assay (HepG2 AhR-Lucia reporter cells). It is filed as cell-based. Conditions: luciferase activity with AHR activating ligand at EC50, read-out: HepG2-Luc IC50. From the text:
AHR binds to Dioxin Responsive Elements (DRE) upstream of genes that it activates. One measure of AHR activity is activation of a reporter gene, such as luciferase, downstream of one or multiple DRE elements. Luciferase activity will reflect activation and inhibition of AHR in the cells expressing his reporter. 20000 Human HepG2 liver carcinoma—AhR-Lucia reporter cells or Human HT29 colon adenocarcinoma—AhR reporter cells or other cell line with a DRE-luciferase reporter stably transfected were plated in Eagle's Minimal Essential Medium, 10% heat-inactivated FBS, 1× non-essential amino acids Pen-Strep (10,000 U/mL) and Normocin (100 ug/mL) in plates (96-well, 384-well or other plates) and incubated overnight at 37° C. in a CO2 incubator and treated with and without AhR antagonists at a log dilution starting at 100 uM.
After 1 hr that cells were plated an AHR activating ligand, such as TCDD, kynurenine, ITE (2-(1H-indole-3-ylcarbonyl)-4-thiazolecarboxylic methyl ester), VAF347, BNF (beta-naphthoflavone), FICZ (6-formylindolo(3,2-b) carbazole) or other AHR ligands at their specific EC50 concentration, were added to the cells with or without AHR antagonist.
Cells were incubated for 24 or 48 hours or another time point and then, supernatant was analyzed for determination of luciferase activity as a read-out of the AHR activation or inhibition. Luciferase was measured with the commercial kit QUANTI-Luc™ assay solution kit from Invivogen following the manufacturer's instructions.
The level of luciferase with only agonist ligand added was the maximum signal while the luciferase with […] was the minimum signal. IC50 values were determined as the concentration which inhibits half of the luciferase activity.
In general terms: In a reporter assay the amount or activity of a reporter protein is the signal.

Series [1] in a line: Hepatocyte Stability Assay, human. It counts as in vitro ADME. Conditions: cryopreserved hepatocytes, read-out: Human hepatocyte clearance. Here is the method: Preparation of working solutions: 10 mM stock solutions of test compound and positive control were prepared in DMSO. In separate conical tubes, the 10 mM solution of test compound and the positive control were diluted to 100 μM by combining 198 μL of 50% acetonitrile/50% water and 2 μL of 10 mM stock.
Preparation of Hepatocytes: Incubation medium (William's E Medium supplemented with GlutaMAX) and hepatocyte thawing medium were placed in a 37° C. water bath and allowed warming for at least 15 minutes prior to use. A vial of cryopreserved hepatocytes was transferred from storage, ensuring that vials remained at cryogenic temperatures until thawing process ensued. Cells were thawed by placing the vial in a 37° C. water bath and gently shaking the vials for 2 minutes. […] Using an AO/PI Staining, cells were counted and the viable cell density was determined. Cells with poor viability (<75% viability) were determined to be not acceptable for use. […]
Data Analysis: All calculations were carried out using Microsoft Excel. Peak areas were determined from extracted ion chromatograms. In vitro half-life (t1/2) of parent compound was determined by regression analysis of the percent parent disappearance vs. time curve.
The in vitro half-life (in vitro t1/2) was determined from the slope value: in vitro t1/2=0.693/k […]

As to `Cn1nccc1C(=O)Nc1ccc2nc(-c3ccccc3C(F)(F)F)[nH]c2c1` [A, 1-methyl-N-(2-(2-(trifluoromethyl)phenyl)-1H-benzo[d]imidazol-6-yl)-1H-pyrazole-5-carboxamide], on AHR, the IC50 lay within 100 to 500 nM. Further, in series [1], the CLint scaled at 1 μM was < 20 mL/min/kg.
For the molecule `Cn1ncnc1C(=O)Nc1ccc2nc(-c3ccccc3C(F)(F)F)[nH]c2c1` [Compound H, 1-methyl-N-(2-(2-(trifluoromethyl)phenyl)-1H-benzo[d]imidazol-6-yl)-1H-1,2,4-triazole-5-carboxamide], the half-maximal inhibitory concentration (IC50) at AHR was < 100 nM. For the same molecule, the CLint scaled at 1 μM in series [1] is < 20 mL/min/kg.
